Measurements reported in patent publication US12371427B2, “Polymorphic forms of a substituted-quinoxaline-type bridged-piperidine compound” (Purdue Pharma L.P., priority 2019, dated 2025).
Where two headings read alike, the source gives them in different places. Values belong to the molecule of their own block, whether it stands above or below them.

How the values were obtained:
Type in all cases: physicochemical
[1] = Solubility study, visually estimated by dosing solvent aliquots into 10.0 mg API; conditions: thermodynamic from solid
Description: Solubility was assessed in an array of diverse solvents in order to facilitate the selection of solvent systems and corresponding dosing strategies for the subsequent crystal-form screening experiments. The solubility of Form A of Formula (I) was visually estimated in 12 solvents at RT, and if applicable, at 40° C. by dosing small aliquots of the solvent into a fixed amount of the API (10.0 mg) until the dissolution point or a maximum volume of 1.8 mL was reached.

[2] = Relative stability (ripening) study of crystal forms at various water activity levels
Description: Relative stability studies were conducted at 25° C. to determine thermodynamic crystal stability at various water activity levels ranging from aw=0 to aw=0.94. Both non-solvated forms (Forms A and D) and hydrate forms (Form C and E) were ripened during the study.
Saturated suspensions of the Formula (I) were prepared by stirring excess API in the specified solvent system. The suspension was stirred overnight at 25° C. A clarifying filtration was performed and the filtrate was added to a 2 mL vial containing seeds or small quantities of the relevant forms. The resulting suspensions were stirred at 25° C. for seven days. The solids were isolated, air-dried for 45 minutes, and analyzed by FTIR.

[3] = Particle size distribution after jet milling, laser diffraction dry particle size analyzer; conditions: crystalline Form A after fluidized bed opposed jet milling
Description: 21.98 kg of crystalline Form A Formula (I) was processed in a fluidized bed opposed jet mill (Model number 100AFG; Hosokawa Micron) at a feed rate of 8 kg/h under nitrogen at 0.6 MPa and 15,000 rpm. After milling, 20.9 kg ([…]) was collected and analyzed by laser diffraction dry particle size analyzer (HELOS&RODOS).

solubility ([1]; organic solvent or mixture, DCM, 40° C., read-out: Solubility at 40° C.): < 6000 µg/mL | solubility ([1]; organic solvent or mixture, DCM, RT, read-out: Solubility at RT): < 6000 µg/mL | solubility ([1]; organic solvent or mixture, EtOAc, 40° C., read-out: Solubility at 40° C.): < 6000 µg/mL | solubility ([1]; organic solvent or mixture, EtOAc, RT, read-out: Solubility at RT): < 6000 µg/mL | solubility ([1]; organic solvent or mixture, IPA, 40° C., read-out: Solubility at 40° C.): < 6000 µg/mL | solubility ([1]; organic solvent or mixture, IPA, RT, read-out: Solubility at RT): < 6000 µg/mL | solubility ([1]; organic solvent or mixture, IPA:water (9:1), 40° C., read-out: Solubility at 40° C.): < 6000 µg/mL | solubility ([1]; organic solvent or mixture, IPA:water (9:1), RT, read-out: Solubility at RT): < 6000 µg/mL | solubility ([1]; organic solvent or mixture, IPE, 40° C., read-out: Solubility at 40° C.): < 6000 µg/mL | solubility ([1]; organic solvent or mixture, IPE, RT, read-out: Solubility at RT): < 6000 µg/mL | solubility ([1]; organic solvent or mixture, MTBE, 40° C., read-out: Solubility at 40° C.): < 6000 µg/mL | solubility ([1]; organic solvent or mixture, MTBE, RT, read-out: Solubility at RT): < 6000 µg/mL | solubility ([1]; organic solvent or mixture, MeCN, 40° C., read-out: Solubility at 40° C.): < 6000 µg/mL | solubility ([1]; organic solvent or mixture, MeCN, RT, read-out: Solubility at RT): < 6000 µg/mL | solubility ([1]; organic solvent or mixture, MeOH, 40° C., read-out: Solubility at 40° C.): < 7000 µg/mL | solubility ([1]; organic solvent or mixture, MeOH, RT, read-out: Solubility at RT): < 7000 µg/mL | solubility ([1]; organic solvent or mixture, THF, 40° C., read-out: Solubility at 40° C.): < 6000 µg/mL | solubility ([1]; organic solvent or mixture, THF, RT, read-out: Solubility at RT): < 6000 µg/mL | solubility ([1]; organic solvent or mixture, Toluene, 40° C., read-out: Solubility at 40° C.): < 7000 µg/mL | solubility ([1]; organic solvent or mixture, Toluene, RT, read-out: Solubility at RT): < 7000 µg/mL | solubility ([1]; Water, 40° C., read-out: Solubility at 40° C.): < 6000 µg/mL | solubility ([1]; Water, RT, read-out: Solubility at RT): < 6000 µg/mL | Crystal form remaining after the ripening study ([2]; all solvent systems, 25° C., seven days, FTIR): the only crystal form remaining | Relative stability among crystalline forms of Formula (I) ([2]; confirmed in ripening studies): the most stable crystalline form
SMILES: O=C(O)c1nc2ccccc2n([C@H]2C[C@H]3CCC[C@@H](C2)N3C2CC3CCCC(C3)C2)c1=O (stereo partly shown) [Form A]

solubility ([1]; all solvents of Table 3 other than DMSO, organic solvent or mixture, read-out: Solubility (low) in all other solvents evaluated): ≤ 7000 µg/mL | solubility ([1]; organic solvent or mixture, DMSO, RT, read-out: Solubility at RT): 21000 to 52000 µg/mL | D10 [3]: 0.63 μm | D30 [3]: 1.36 μm | D50 [3]: 2.29 μm | D70 [3]: 3.57 μm | D90 [3]: 5.8 μm
SMILES: O=C(O)c1nc2ccccc2n([C@H]2C[C@H]3CCC[C@@H](C2)N3C2CC3CCCC(C3)C2)c1=O (stereo partly shown) [Formula (I)]
